Measurements published in article PMC3383642 (Nature, 2012).
“And” between values parts separate entries of the source, which are not always exact repeats. Equal entries are not always repeated. Where two headings read alike, the source gives them in different places.

Experiments:
[1] = system: platelet aggregation in whole human blood; test: Collagen-induced platelet aggregation in whole human blood; type: cell-based
PTGS1 (ovine COX-1) = biological target: T1, PTGS1 (ovine COX-1) (Ovis aries, UniProt P05979); test: biochemical
T1 sequence (P05979 25-600): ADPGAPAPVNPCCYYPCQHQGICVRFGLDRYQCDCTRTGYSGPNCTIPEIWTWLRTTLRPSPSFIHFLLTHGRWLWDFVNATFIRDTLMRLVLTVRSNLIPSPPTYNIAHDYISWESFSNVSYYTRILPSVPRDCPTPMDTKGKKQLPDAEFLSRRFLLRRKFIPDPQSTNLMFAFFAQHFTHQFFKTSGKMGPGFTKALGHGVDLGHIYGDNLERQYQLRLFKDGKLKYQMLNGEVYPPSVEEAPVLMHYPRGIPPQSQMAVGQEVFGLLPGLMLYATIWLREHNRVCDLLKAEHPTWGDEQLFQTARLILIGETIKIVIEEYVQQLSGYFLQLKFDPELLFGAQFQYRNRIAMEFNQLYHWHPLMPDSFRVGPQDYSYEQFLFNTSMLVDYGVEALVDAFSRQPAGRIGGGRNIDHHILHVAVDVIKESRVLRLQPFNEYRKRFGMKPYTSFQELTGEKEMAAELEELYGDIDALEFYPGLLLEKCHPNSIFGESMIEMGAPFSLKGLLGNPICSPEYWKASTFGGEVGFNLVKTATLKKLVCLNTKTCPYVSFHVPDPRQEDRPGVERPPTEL

[2] = biological target: HRH1 (histamine receptor H1) (Homo sapiens, UniProt P35367); test: biochemical; type: binding
HRH1 (histamine receptor H1), sequence (P35367 whole entry): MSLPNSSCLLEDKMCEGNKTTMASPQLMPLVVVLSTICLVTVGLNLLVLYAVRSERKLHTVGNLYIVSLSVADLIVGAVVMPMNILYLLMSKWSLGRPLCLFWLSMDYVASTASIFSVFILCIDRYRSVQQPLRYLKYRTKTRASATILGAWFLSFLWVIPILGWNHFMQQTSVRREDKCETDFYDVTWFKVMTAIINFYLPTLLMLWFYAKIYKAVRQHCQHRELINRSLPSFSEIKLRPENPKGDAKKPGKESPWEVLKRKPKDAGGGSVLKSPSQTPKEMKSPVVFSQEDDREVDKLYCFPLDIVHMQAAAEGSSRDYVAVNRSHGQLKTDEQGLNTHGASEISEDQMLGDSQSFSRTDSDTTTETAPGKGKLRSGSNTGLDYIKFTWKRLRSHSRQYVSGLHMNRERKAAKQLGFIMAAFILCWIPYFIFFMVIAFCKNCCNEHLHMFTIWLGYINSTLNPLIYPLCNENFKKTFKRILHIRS

[3] = human plasma, ref Thompson Reuters Integrity, cited from earlier work; for AUC [μM*h] (median): median of reported values
[4] = biological target: OPRM1 (opioid receptor, mu 1) (Homo sapiens, UniProt P35372); test: OPRM1 functional agonist assay; type: cell-based; conditions: Activity (μM) (median), target OPRM1; agonist per Figure S1E
OPRM1 (opioid receptor, mu 1), sequence (P35372 whole entry): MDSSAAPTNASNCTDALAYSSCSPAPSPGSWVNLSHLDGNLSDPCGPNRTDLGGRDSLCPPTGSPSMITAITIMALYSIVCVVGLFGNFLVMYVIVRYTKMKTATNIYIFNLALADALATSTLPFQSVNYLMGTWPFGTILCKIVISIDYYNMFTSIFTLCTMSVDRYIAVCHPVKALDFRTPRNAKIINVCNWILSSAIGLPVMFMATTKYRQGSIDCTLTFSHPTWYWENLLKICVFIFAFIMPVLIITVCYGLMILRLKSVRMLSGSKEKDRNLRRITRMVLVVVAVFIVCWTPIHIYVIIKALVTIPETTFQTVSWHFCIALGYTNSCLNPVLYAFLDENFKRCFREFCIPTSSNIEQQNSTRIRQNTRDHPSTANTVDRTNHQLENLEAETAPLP

[5] = biological target: T2, PGR (progesterone receptor) (Homo sapiens, UniProt P06401); test: biochemical
T2 sequence (P06401 679-913 limits assumed): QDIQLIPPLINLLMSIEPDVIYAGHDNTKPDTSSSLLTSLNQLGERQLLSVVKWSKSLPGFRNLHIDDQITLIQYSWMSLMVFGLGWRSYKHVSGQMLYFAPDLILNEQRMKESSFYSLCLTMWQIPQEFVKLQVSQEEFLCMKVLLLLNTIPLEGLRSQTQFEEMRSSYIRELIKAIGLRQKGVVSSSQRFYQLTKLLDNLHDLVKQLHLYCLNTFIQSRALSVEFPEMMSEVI

[6] = Homo sapiens, Platelet, read-out: inhibition of platelet aggregation

COc1ccc(C(Cl)=C(c2ccc(OC)cc2)c2ccc(OC)cc2)cc1 [Chlorotrianisene]
potency of inhibition of platelet aggregation in whole blood ([1]; 0.5, 5 and 50 μM, collagen 1 μg/mL, compared with indomethacin): almost indistinguishable from that of indomethacin | IC50 (PTGS1 (ovine COX-1)): 160 nM

CCN(CC)CCCN(c1ccccc1)C1Cc2ccccc2C1 [Aprindine]
IC50 ([2]; IC50 [μM]): 0.78 µM

CC(NCCc1ccc(O)cc1)C(O)c1ccc(O)cc1 (centres unmarked) [Ritodrine]
AUC [μM*h] (median) [3]: 0.11 µM·h | AUC ([3]; range of reported values): 0.03 to 0.32 µM·h | Cmax ([3]; range of reported values): 10 to 150 nM | EC50 [4]: 9.18 µM

CC(Cc1ccccc1)NCCC(c1ccccc1)c1ccccc1 (centres unmarked) [Prenylamine]
IC50 ([2]; Activity (μM) (median)): 7.87 µM | IC50 ([2]; IC50 [μM]): 7.9 µM | AUC ([3]; range of reported values): 0.12 µM·h | Cmax ([3]; range of reported values): 1200 nM

CN(C)CCC=C1c2ccccc2C=Cc2ccccc21 [Cyclobenzaprine]
IC50 ([2]; Activity (μM) (median)): 0.02 µM | IC50 ([2]; binding to histamine H1 receptor (HRH1), IC50): 0.021 µM and 0.02 µM | AUC [μM*h] (median) [3]: 0.69 µM·h | AUC ([3]; range of reported values): 0.16 to 4.10 µM·h | Cmax ([3]; range of reported values): 10 to 130 nM | Cmax ([3]; read-out: median Cmax in plasma): 61 nM

COc1ccc2c(c1)c(CC(=O)O)c(C)n2C(=O)c1ccc(Cl)cc1 [indomethacin]
inhibition at 50 µM [1, 6]: 50%

C[C@H]1C[C@@H]2[C@H]([C@@H](O)C[C@@]3(C)[C@H]2CC[C@]3(O)C(=O)CO)[C@@]2(C)C=CC(=O)C=C12 [Methylprednisolone]
AUC [μM*h] (median) [3]: 1.28 µM·h | AUC ([3]; range of reported values): 0.09 to 10.76 µM·h | Cmax ([3]; range of reported values): 60 to 2110 nM | EC50 [5]: 1300 nM

CN1CCN(C2=Nc3ccccc3Oc3ccc(Cl)cc32)CC1 [Loxapine]
AUC [μM*h] (median) [3]: 0.21 µM·h | AUC ([3]; range of reported values): 0.03 to 0.43 µM·h | Cmax ([3]; range of reported values): 20 to 410 nM

CNC(=C[N+](=O)[O-])NCCSCc1ccc(CN(C)C)o1 [Ranitidine]
AUC [μM*h] (median) [3]: 9.67 µM·h | AUC ([3]; range of reported values): 5.66 to 121.90 µM·h | Cmax ([3]; range of reported values): 1140 to 9110 nM

CC(=O)Oc1ccccc1C(=O)O [Acetylsalicylic acid]
inhibition at 250 µM [1, 6]: 42 to 48%
